PubChem BioAssay (NCI)
“And” between values parts separate entries of the source, which are not always exact repeats. Equal values may be shown once.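 Grown in 96-well plates, cells were treated for 48 hours with each compound at five concentrations. Insufficient inhibition: endpoint recorded as highest concentration tested. The concentration for 50% growth inhibition is given as GI50. Definition used: TGI = concentration required for complete inhibition of growth.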

Legend:
Test in all cases: NCI-60 cell line screen, 48 h
CAKI-1 renal = system: CAKI-1 renal
COLO 205 colon = system: COLO 205 colon
EKVX NSCLC = system: EKVX NSCLC
IGROV1 ovarian = system: IGROV1 ovarian
K-562 leukemia = system: K-562 leukemia
NCI-H522 lung = system: NCI-H522 lung
OVCAR-5 ovarian = system: OVCAR-5 ovarian
SNB-19 CNS = system: SNB-19 CNS
SNB-75 CNS = system: SNB-75 CNS
SW-620 colon = system: SW-620 colon

Row | SMILES | GI50 (CAKI-1 renal) [µM] | TGI (CAKI-1 renal) | GI50 (COLO 205 colon) [µM] | TGI (COLO 205 colon) | GI50 (EKVX NSCLC) [µM] | TGI (EKVX NSCLC) | GI50 (IGROV1 ovarian) [µM] | TGI (IGROV1 ovarian) | GI50 (K-562 leukemia) [µM] | TGI (K-562 leukemia) [µM] | GI50 (NCI-H522 lung) [µM] | TGI (NCI-H522 lung) | GI50 (OVCAR-5 ovarian) [µM] | TGI (OVCAR-5 ovarian) [µM] | GI50 (SNB-19 CNS) [µM] | TGI (SNB-19 CNS) [µM] | GI50 (SNB-75 CNS) [µM] | TGI (SNB-75 CNS) | GI50 (SW-620 colon) [µM] | TGI (SW-620 colon) [µM]
1 | COC(=O)C(C)NP(=O)(OCc1ccc(Cn2cnc3c(=O)[nH]c(N)nc32)cc1)Oc1ccccc1 (stereo unspecified) | > 100 | > 100 µM | > 100 | > 100 µM | > 100 | > 100 µM | > 100 | > 100 µM | > 100 | > 100 | > 100 | > 100 µM | > 100 | > 100 | > 100 | > 100 | > 100 | > 100 µM | > 100 | > 100
2 | COc1cc2ccc3c4c(OC)cc(OC)c(OC)c4c(=O)n(C)c3c2cc1OC | 6.83 | 16.7 µM and > 44.2 µM | 1.3 | 4.09 µM and 9.95 µM | 5.65 | 16.7 µM and > 48.7 µM | – | 16.7 µM and > 45.6 µM | 0.303 | – | 0.745 | 10.9 µM and > 32.8 µM | – | 23.1 | – | > 51.7 | 3.25 | 14.5 µM and > 42.5 µM | 1.05 | 4.43
3 | CCOC(=O)c1c(-c2ccccc2)[n+](=O)c2ccc(Cl)cc2n1[O-] | 3.82 | 13.2 µM | 3.89 | 13.6 µM | 2.4 | 8.32 µM | 3.93 | 16.5 µM | 4.69 | 18.5 | > 100 | > 100 µM | 7.12 | 20.2 | 10.4 | > 100 | 3.18 | 18.8 µM | 5.59 | 17.7
4 | COc1ccc2c(c1)CCc1c(-c3noc4c3CCc3cc(OC)ccc3-4)noc1-2 | – | > 100 µM | – | > 100 µM | – | > 100 µM | – | > 100 µM | – | > 100 | – | > 100 µM | – | > 100 | – | > 100 | – | > 100 µM | – | > 100
5 | Nc1ncnc2c1nc(-c1ccccc1)n2C1OC(CO)C(O)C1O (stereo unspecified) | – | > 100 µM | – | > 100 µM | – | > 100 µM | – | > 100 µM | – | > 100 | – | > 100 µM | – | > 100 | – | > 100 | – | > 100 µM | – | > 100
6 | COc1ccc(NC(=O)C(=O)C2CNC(=O)NC2=O)c(OC)c1 (stereo unspecified) | – | > 100 µM | – | > 100 µM | – | > 100 µM | – | > 100 µM | – | > 100 | – | > 100 µM | – | > 100 | – | > 100 | – | > 100 µM | – | > 100
7 | COc1cc(C#N)cc(OC)c1OCCOCCOc1c(OC)cc(C#N)cc1OC | > 100 | > 100 µM | 37.2 | > 100 µM | > 100 | > 100 µM | 89.2 | > 100 µM | 11.7 | 37.1 | 31.2 | > 100 µM | > 100 | > 100 | 94.4 | > 100 | > 100 | > 100 µM | > 100 | > 100
8 | O=C1CCCC2=C(N1)C(=O)C=CC2=O | – | 49.6 µM | – | 33.3 µM | – | 53 µM | – | 57.2 µM | – | 32 | – | 34.8 µM | – | 48.6 | – | 61 | – | 60 µM | – | 37.9
9 | CCOc1ccccc1N=Nc1c(-c2ccccc2)nn(C(=O)CC(=O)Nc2cccc(Cl)c2)c1-c1ccccc1 | – | > 100 µM | – | > 100 µM | – | > 100 µM | – | > 100 µM | – | > 100 | – | > 100 µM | – | > 100 | – | > 100 | – | > 100 µM | – | > 100
10 | CN(C)CCCN(c1nc(C(Cl)(Cl)Cl)ns1)c1nc(C(Cl)(Cl)Cl)ns1 | 4.82 | 18.5 µM | 1.47 | 2.85 µM | 3.32 | 13 µM | 2.27 | 4.92 µM | 1.79 | 3.93 | 1.71 | 3.45 µM | 1.82 | 3.8 | 2.53 | 7.3 | 2.17 | 7.89 µM | 1.67 | 3.18
11 | CCOC(=O)c1c(C)nc2ccc(Cl)cc2c1-c1ccccc1 | 21.1 | 55 µM | 17.9 | 53.4 µM | 25.6 | 88.2 µM | 16.6 | 61.1 µM | 20.1 | > 100 | 14.2 | 36.6 µM | 19.8 | 44.6 | 14.4 | 34.9 | 21.8 | 64.9 µM | 19.2 | 47
12 | CC(C)NCC(O)COC(=O)c1cccs1 (stereo unspecified) | – | > 100 µM | – | > 100 µM | – | > 100 µM | – | > 100 µM | – | > 100 | – | > 100 µM | – | > 100 | – | > 100 | – | > 100 µM | – | > 100
13 | Cc1ccccc1NC(=O)C(=O)C(c1cnc2ccc([N+](=O)[O-])cc2n1)[N+](=O)[O-] (stereo unspecified) | – | > 100 µM | – | > 100 µM | – | > 100 µM | – | > 100 µM | – | > 100 | – | > 100 µM | – | > 100 | – | > 100 | – | > 100 µM | – | > 100
14 | CNNCc1ccc(C(=O)NC(C)C)cc1 | > 500 | > 500 µM | – | > 500 µM | – | > 500 µM | > 500 | > 500 µM | > 500 | > 500 | – | > 500 µM | > 500 | > 500 | – | > 500 | > 500 | > 500 µM | – | > 500
15 | S=c1nc2[nH]ncc2c(N/N=C/c2ccccc2)[nH]1 | 31.9 | > 100 µM | > 100 | > 100 µM | > 100 | > 100 µM | 45.4 | > 100 µM | > 100 | > 100 | > 100 | > 100 µM | > 100 | > 100 | > 100 | > 100 | > 100 | > 100 µM | > 100 | > 100
16 | Cc1c(C(=O)CC(=O)C(=O)Nc2ccc(Cl)c(Cl)c2)[n+](=O)c2ccccc2n1[O-] | – | > 100 µM | – | 36.1 µM | – | 36.9 µM | – | 50.8 µM | – | 57.2 | – | 37 µM | – | 86.4 | – | > 100 | – | 48.9 µM | – | 71.8
